Test results from patent US11491460B2, “Porous cyclodextrin polymeric materials and methods of making and using same” (Cornell University, priority 2015, dated 2022).
Counter-ions that a name gives are not always drawn.

Tests used:
[1] = Micropollutant adsorption kinetics experiments on CCAC; conditions: CCAC 10 mg/L, MP 1 μg/L
[2] = Micropollutant adsorption kinetics experiments on P-CDP; conditions: P-CDP 10 mg/L, MP 1 μg/L
[3] = Batch adsorption kinetic studies of organic pollutants on P-CDP; conditions: estimated from the equilibrium efficiency value from the batch kinetic studies
[4] = Langmuir parameters of pollutant adsorption on P-CDP (Table 6); assay type: binding
Source text: H. Thermodynamic studies of adsorption.
K (mol^−1) is the equilibrium constant.

[5] = tested on: fish populations; conditions: concentrations as low as; cited from earlier work
[6] = cited from earlier work; for Cs, solubility in water: experimental values
[7] = 23° C., estimated at t=30 minutes

With O=C(O)COc1ccc(Cl)cc1Cl [2,4-D] the “removal by CCAC (in words)” value [1] was “removed fairly well”, the kobs [1, 7] was 11.0 g/mg/min and the “removal by P-CDP (in words)” value [2] was “hardly removed”. The kobs [2, 7] was 72.9 g/mg/min.

In the case of Oc1ccc2ccccc2c1 [2-NO, 2-naphthol], the “K, equilibrium constant” value [3] is reported as ~30,000^c Mol^−1.

With CC(C)(c1ccc(O)cc1)c1ccc(O)cc1 [BPA, Bisphenol A] the “BPA/β-CD molar ratio at qmax,e” value [4] was 0.9, the “K, equilibrium constant” value ([4]; Langmuir) was 56,500 Mol^−1 and the “qmax,e, maximum adsorption capacity of pollutant on 1 g P-CDP at equilibrium” value ([4]; Langmuir) was 88.5 mg/g.

In the case of O=S(=O)(c1ccc(O)cc1)c1ccc(O)cc1 [BPS, bisphenol S], the “K, equilibrium constant” value [3] is reported as ~17,000^c Mol^−1.

With Oc1ccc(Cl)cc1Cl [DCP, 2,4-dichlorophenol] the “K, equilibrium constant” value [3] was ~17,000^c Mol^−1.

In the case of CC(C)(C)NCC(O)c1ccc(O)c(CO)c1 (stereo not shown) [albuterol], the “removal by CCAC (in words)” value [1] is reported as “not effectively removed” and the “removal by P-CDP (in words)” value [2] is reported as “removed well”.

For CC(N)Cc1ccccc1 (stereo not shown) [amphetamine], the “removal by CCAC (in words)” value [1] was “not effectively removed” and the “removal by P-CDP (in words)” value [2] was “removed well”.

For CC(C)NCC(O)COc1ccc(CC(=O)O)cc1 (stereo not shown) [atenolol acid], the “removal by CCAC (in words)” value [1] was “not effectively removed” and the “removal by P-CDP (in words)” value [2] was “removed well”.

For CC(C)NCC(O)COc1ccc(CC(N)=O)cc1 (stereo not shown) [atenolol], the “removal by CCAC (in words)” value [1] was “not effectively removed” and the “removal by P-CDP (in words)” value [2] was “removed well”.

With COc1ccc2c3c1O[C@H]1[C@@H](O)C=C[C@H]4[C@@H](C2)N(C)CC[C@@]341 [codeine] the “removal by CCAC (in words)” value [1] was “not effectively removed” and the “removal by P-CDP (in words)” value [2] was “removed well”.

In the case of C#C[C@]1(O)CC[C@H]2[C@@H]3CCc4cc(O)ccc4[C@H]3CC[C@@]21C [ethinyl estradiol], the “concentration that has caused the collapse of fish populations” value [5] is listed as 5 pg/mL, the pKa [6] is listed as 10.4 and the “Cs, solubility in water” value [6] is listed as 2 µg/mL.

In the case of COc1ccc2c3c1O[C@H]1C(=O)CC[C@H]4[C@@H](C2)N(C)CC[C@]314 [hydrocodone], the “removal by CCAC (in words)” value [1] is reported as “not effectively removed” and the “removal by P-CDP (in words)” value [2] is reported as “removed well”.

In the case of CCc1cccc(C)c1N(C(=O)CCl)C(C)COC (stereo not shown) [metolachlor], the “K, equilibrium constant” value [3] is reported as ~35,000^c Mol^−1.

For CN1CC[C@]23c4c5ccc(O)c4O[C@H]2[C@@H](O)C=C[C@H]3[C@H]1C5 [morphine], the “removal by CCAC (in words)” value [1] was “not effectively removed” and the “removal by P-CDP (in words)” value [2] was “removed well”.

In the case of CC(C)NCC(O)COc1cccc2ccccc12 (stereo not shown) [propranolol hydrochloride], the “K, equilibrium constant” value [3] is reported as ~72,000^c Mol^−1.

For CC(C)NCC(O)COc1cccc2ccccc12 (stereo not shown) [propranolol], the “Cs, solubility in water” value [6] is given as 50 µg/mL.

With COc1cccc(C2(O)CCCCC2CN(C)C)c1 (stereo not shown) [tramadol] the “removal by CCAC (in words)” value [1] was “not effectively removed” and the “removal by P-CDP (in words)” value [2] was “removed well”.

With COc1ccc(C(CN(C)C)C2(O)CCCCC2)cc1 (stereo not shown) [venlafaxine] the “removal by CCAC (in words)” value [1] was “not effectively removed” and the “removal by P-CDP (in words)” value [2] was “removed well”.
